Measured values reported in patent US20080045451A1, “Novel thymidylate synthase mutants” (priority 2000, published 2008).

Experiments:
[1] = Ho et al., 2001; cited from earlier work
3T3 fibroblasts = test: Cytotoxicity of 5-FU in 3T3 fibroblasts with or without PTD-4-TSD254E fusion protein (Hoechst 33342); format: cell-based; conditions: 24 h
Experimental: 3T3 fibroblasts cells (available by the American Type […] Collection (ATCC, Rockville, Md., USA) were seeded with a cell density of 1×10^4 cells per well into 96-well-cell culture plates. DMEM medium with 10% fetal calve serum is used as cell culture medium, and cells are cultured in a CO2-incubator at 37° C. and 5% CO2. The cell culture medium is aspirated after 24 hours and substituted by 200 μL/well of the test assay and cells are incubated for another 24 hours. Subsequently the portion of viable cells was determined as described below. The test assays are composed as follows:
Controls without 5-FU and without PTD-4-TSD2S4E-fusion protein: 200 μL/well of DMEM with 10%.fetal calve serum […]
After completion of the 24-hour treatment of the cells in the control- or test assaysas described above, the medium is removed from the 96-well-plates and substituted by 200 μL/well DMEM medium with 10% fetal calve serum and 10 μg/mL of the DNA-binding fluorescent dye H33342 (Engelmann et al., 2001). […] Subsequently, 100 μL well PBS is added and the fluorescence is quantified at an […]. The intensity of the fluorescence signal is a measure for the number of viable cells. […] The fluorescence intensity of these samples is set as 100%. […] The ED50-values were calculated using the nonlinear regression. […]

[2] = tested on: primary human gingival fibroblasts; test: Cytotoxicity of 5-FU in primary human gingival fibroblasts with or without PTD-4-TSD254E fusion protein (Hoechst 33342); format: cell-based; conditions: 10 mM 5-FU, 24 h, without PTD-4-TSD254E, FIG. 7
Experimental: After completion of the 24-hour treatment of the cells in the control- or test assaysas described above, the medium is removed from the 96-well-plates and substituted by 200 μL/well DMEM medium with 10% fetal calve serum and 10 μg/mL of the DNA-binding fluorescent dye H33342 (Engelmann et al., 2001). The plates are kept at 37° C. for 30 minutes and are then washed twice with each 100 μL/well phosphaste-buffered sodium chloride solution (PBS, “phosphate buffered saline”). Subsequently, 100 μL well PBS is added and the fluorescence is quantified at an […]. The intensity of the fluorescence signal is a measure for the number of viable cells. The fluorescence background signal (dye incubation without cells) is subtracted from the raw data of the fluorescence readings and the calculation of the %-share of viable cells is made related to the fluorescence reading of cells, which were not treated with 5-FU. The fluorescence intensity of these samples is set as 100%. The dosage of 5-FU that kills 50% of the cells (ED50), is determined using the same method. […] The ED50-values were calculated using the nonlinear regression. This method to determine the ED50 has been already described (Engelmann et al., 2001). […]

In the case of “PTD-4: optimized TAT sequence YARAAARQARA (SEQ ID NO: 6), protein transduction domain 4 (synthetic TAT sequence optimized by random mutagenisis)”, the “transduction activity in comparison to the original TAT sequence” value [1] is listed as 33 fold.
`O=c1[nH]cc(F)c(=O)[nH]1` [Mutant 5-FU, 5-fluorouracil] gave a survival of cells (3T3 fibroblasts; 2.5 μM 5-FU, absence of PTD-4-TSD254E, FIG. 6) of 50%, an EC50 (3T3 fibroblasts; 3T3-fibroblast cell line, read-out: ED50 (dosage of 5-FU that kills 50% of the cells)) of 2500 nM and a survival of cells [2] of 70%.
